Source: publication PMC9848257, “Design and synthesis of novel rigid dibenzo[b,f]azepines through ring closure technique as promising anticancer candidates against leukaemia and acting as selective topoisomerase II inhibitors and DNA intercalators” (Journal of Enzyme Inhibition and Medicinal Chemistry, 2023)

Key:
[1] = tested on: SR; assay: NCI-60 one-dose screen, SR; type: cell-based; conditions: Homo sapiens, leukaemia, single dose 10 μM, read-out: Growth inhibition %
Experimental: (§1) Anti-proliferative effects of the counterparts 4a–g and 5a–g were screened against 60 human cancer cell lines, following the Developmental Therapeutics Program protocol, National Cancer Institute[35].
(§2) The anti-tumour activity of the fourteen synthesised congeners was investigated at the NCI against a panel of 60 cancer cell lines (NCI-60 Cell One-Dose Screen). The tested dibenzo[b,f]azepine derivatives were screened at a single dose level (10 μM), Table 1.

[2] = tested on: U251; assay: NCI-60 one-dose screen, U251; type: cell-based; conditions: Homo sapiens, U-251; U251, CNS cancer; single dose 10 μM; read-out: Growth inhibition %
Experimental: as §1, §2

[3] = tested on: HT29; assay: NCI-60 one-dose screen, HT29; type: cell-based; conditions: Homo sapiens, HT-29; HT29, colon cancer; single dose 10 μM; read-out: Growth inhibition %
Experimental: as §1, §2

[4] = tested on: COLO 205; assay: NCI-60 one-dose screen, COLO 205; type: cell-based; conditions: Homo sapiens; COLO 205, colon cancer; single dose 10 μM; read-out: Growth inhibition %
Experimental: as §1, §2

[5] = tested on: UO-31; assay: NCI-60 one-dose screen, UO-31; type: cell-based; conditions: Homo sapiens; UO-31, renal cancer; single dose 10 μM; read-out: Growth inhibition %
Experimental: as §1, §2

[6] = tested on: NCI-H522; assay: NCI-60 one-dose screen, NCI-H522; type: cell-based; conditions: Homo sapiens; NCI-H522, non-small cell lung cancer; single dose 10 μM; read-out: Growth inhibition %
Experimental: as §1, §2

[7] = tested on: HOP-92; assay: NCI-60 one-dose screen, HOP-92; type: cell-based; conditions: Homo sapiens; HOP-92, non-small cell lung cancer; single dose 10 μM; read-out: Growth inhibition %
Experimental: as §1, §2

[8] = tested on: SK-MEL-5; assay: NCI-60 one-dose screen, SK-MEL-5; type: cell-based; conditions: Homo sapiens; SK-MEL-5, melanoma; single dose 10 μM; read-out: Growth inhibition %
Experimental: as §1, §2

[9] = tested on: RPMI-8226; assay: NCI-60 one-dose screen, RPMI-8226; type: cell-based; conditions: Homo sapiens; RPMI-8226, leukaemia; single dose 10 μM; read-out: Growth inhibition %
Experimental: as §1, §2

[10] = tested on: SF-268; assay: NCI-60 one-dose screen, SF-268; type: cell-based; conditions: Homo sapiens; SF-268, CNS cancer; single dose 10 μM; read-out: Growth inhibition %
Experimental: as §1, §2

[11] = tested on: OVCAR-3; assay: NCI-60 one-dose screen, OVCAR-3; type: cell-based; conditions: Homo sapiens; OVCAR-3, ovarian cancer; single dose 10 μM; read-out: Growth inhibition %
Experimental: as §1, §2

[12] = tested on: UACC-62; assay: NCI-60 one-dose screen, UACC-62; type: cell-based; conditions: Homo sapiens; UACC-62, melanoma; single dose 10 μM; read-out: Growth inhibition %
Experimental: as §1, §2

[13] = tested on: CCRF-CEM; assay: NCI-60 one-dose screen, CCRF-CEM; type: cell-based; conditions: Homo sapiens, leukaemia, single dose 10 μM, read-out: Growth inhibition %
Experimental: as §1, §2

[14] = tested on: HS 578 T; assay: NCI-60 one-dose screen, HS 578 T; type: cell-based; conditions: Homo sapiens, breast cancer, single dose 10 μM, read-out: Growth inhibition %
Experimental: as §1, §2

[15] = tested on: MOLT-4; assay: NCI-60 one-dose screen, MOLT-4; type: cell-based; conditions: Homo sapiens; MOLT-4, leukaemia; single dose 10 μM; read-out: Growth inhibition %
Experimental: as §1, §2

[16] = tested on: SK-MEL-28; assay: NCI-60 one-dose screen, SK-MEL-28; type: cell-based; conditions: Homo sapiens; SK-MEL-28, melanoma; single dose 10 μM; read-out: Growth inhibition %
Experimental: as §1, §2

[17] = tested on: OVCAR-4; assay: NCI-60 one-dose screen, OVCAR-4; type: cell-based; conditions: Homo sapiens; OVCAR-4, ovarian cancer; single dose 10 μM; read-out: Growth inhibition %
Experimental: as §1, §2

[18] = tested on: DU-145; assay: NCI-60 one-dose screen, DU-145; type: cell-based; conditions: Homo sapiens; DU-145, prostate cancer; single dose 10 μM; read-out: Growth inhibition %
Experimental: as §1, §2

[19] = tested on: K-562; assay: NCI-60 one-dose screen, K-562; type: cell-based; conditions: Homo sapiens, K562; K-562, leukaemia; single dose 10 μM; read-out: Growth inhibition %
Experimental: as §1, §2

[20] = tested on: MDA-MB-435; assay: NCI-60 one-dose screen, MDA-MB-435; type: cell-based; conditions: Homo sapiens; MDA-MB-435, melanoma; single dose 10 μM; read-out: Growth inhibition %
Experimental: as §1, §2

[21] = tested on: A498; assay: NCI-60 one-dose screen, A498; type: cell-based; conditions: Homo sapiens; A498, renal cancer; single dose 10 μM; read-out: Growth inhibition %
Experimental: as §1, §2

[22] = tested on: SF-295; assay: NCI-60 one-dose screen, SF-295; type: cell-based; conditions: Homo sapiens; SF-295, CNS cancer; single dose 10 μM; read-out: Growth inhibition %
Experimental: as §1, §2

[23] = tested on: SW-620; assay: NCI-60 one-dose screen, SW-620; type: cell-based; conditions: Homo sapiens; SW-620, colon cancer; single dose 10 μM; read-out: Growth inhibition %
Experimental: as §1, §2

[24] = tested on: MDA-MB-231-ATCC; assay: NCI-60 one-dose screen, MDA-MB-231-ATCC; type: cell-based; conditions: Homo sapiens, breast cancer, single dose 10 μM, read-out: Growth inhibition %
Experimental: as §1, §2

[25] = tested on: HCT-116; assay: NCI-60 one-dose screen, HCT-116; type: cell-based; conditions: Homo sapiens; HCT-116, colon cancer; single dose 10 μM; read-out: Growth inhibition %
Experimental: as §1, §2

[26] = tested on: PC-3; assay: NCI-60 one-dose screen, PC-3; type: cell-based; conditions: Homo sapiens; PC-3, prostate cancer; single dose 10 μM; read-out: Growth inhibition %
Experimental: as §1, §2

[27] = tested on: SK-OV-3; assay: NCI-60 one-dose screen, SK-OV-3; type: cell-based; conditions: Homo sapiens; SK-OV-3, ovarian cancer; single dose 10 μM; read-out: Growth inhibition %
Experimental: as §1, §2

[28] = tested on: NCI-H226; assay: NCI-60 one-dose screen, NCI-H226; type: cell-based; conditions: Homo sapiens; NCI-H226, non-small cell lung cancer; single dose 10 μM; read-out: Growth inhibition %
Experimental: as §1, §2

[29] = tested on: OVCAR-8; assay: NCI-60 one-dose screen, OVCAR-8; type: cell-based; conditions: Homo sapiens; OVCAR-8, ovarian cancer; single dose 10 μM; read-out: Growth inhibition %
Experimental: as §1, §2

[30] = tested on: TK-10; assay: NCI-60 one-dose screen, TK-10; type: cell-based; conditions: Homo sapiens; TK-10, renal cancer; single dose 10 μM; read-out: Growth inhibition %
Experimental: as §1, §2

[31] = tested on: SNB-19; assay: NCI-60 one-dose screen, SNB-19; type: cell-based; conditions: Homo sapiens; SNB-19, CNS cancer; single dose 10 μM; read-out: Growth inhibition %
Experimental: as §1, §2

[32] = tested on: HL-60(TB); assay: NCI-60 one-dose screen, HL-60(TB); type: cell-based; conditions: Homo sapiens, leukaemia, single dose 10 μM, read-out: Growth inhibition %
Experimental: as §1, §2

[33] = tested on: KM12; assay: NCI-60 one-dose screen, KM12; type: cell-based; conditions: Homo sapiens; KM12, colon cancer; single dose 10 μM; read-out: Growth inhibition %
Experimental: as §1, §2

[34] = tested on: EKVX; assay: NCI-60 one-dose screen, EKVX; type: cell-based; conditions: Homo sapiens, non-small cell lung cancer, single dose 10 μM, read-out: Growth inhibition %
Experimental: as §1, §2

| SMILES | inhibition at 10 µM [1] | inhibition at 10 µM [2] | inhibition at 10 µM [3] | inhibition at 10 µM [4] | inhibition at 10 µM [5] | inhibition at 10 µM [6] | inhibition at 10 µM [7] | inhibition at 10 µM [8] | inhibition at 10 µM [9] | inhibition at 10 µM [10] | inhibition at 10 µM [11] | inhibition at 10 µM [12] | inhibition at 10 µM [13] | inhibition at 10 µM [14] | inhibition at 10 µM [15] | inhibition at 10 µM [16] | melting point | inhibition at 10 µM [17] | inhibition at 10 µM [18] | inhibition at 10 µM [19] | further results |
| --- | --- | --- | --- | --- | --- | --- | --- | --- | --- | --- | --- | --- | --- | --- | --- | --- | --- | --- | --- | --- | --- |
| C1=Cc2ccccc2N(c2nnc(-c3ccccc3)o2)c2ccccc21 [Compound 5a, 2-(5 h-Dibenzo[b,f]azepin-5-yl)-5-phenyl-1,3,4-oxadiazole] | < 10% | 20.1% | < 10% | < 10% | 39.4% | < 10% | 18.3% | < 10% | 67.7% | < 10% | < 10% | < 10% | 26.1% | < 10% | 16.5% | 28% | 209 to 211 °C | < 10% | 12.4% | 32.2% | inhibition at 10 µM [20]: < 10%; inhibition at 10 µM [21]: < 10%; inhibition at 10 µM [22]: < 10%; inhibition at 10 µM [23]: < 10%; inhibition at 10 µM [24]: < 10%; inhibition at 10 µM [25]: 54.2%; inhibition at 10 µM [26]: < 10%; inhibition at 10 µM [27]: < 10%; inhibition at 10 µM [28]: < 10%; inhibition at 10 µM [29]: < 10%; inhibition at 10 µM [30]: 16.1%; inhibition at 10 µM [31]: 33.2%; inhibition at 10 µM [32]: 13.2%; inhibition at 10 µM [33]: < 10%; inhibition at 10 µM [34]: < 10% |
| Brc1ccc(-c2nnc(N3c4ccccc4C=Cc4ccccc43)o2)cc1 [Compound 5b, 2-(4-Bromophenyl)-5-(5H-dibenzo[b,f]azepin-5-yl)-1,3,4-oxadiazole] | 73% | 47% | 18.4% | 15.4% | 33.5% | 26.3% | 33.5% | 53.2% | 17.5% | 24.7% | < 10% | 32.2% | 37.3% | 14.4% | 35.6% | 14.1% | 185 to 187 °C | 19.6% | < 10% | 54.5% | inhibition at 10 µM [20]: < 10%; inhibition at 10 µM [21]: 13.4%; inhibition at 10 µM [22]: 30.4%; inhibition at 10 µM [23]: < 10%; inhibition at 10 µM [24]: 22.3%; inhibition at 10 µM [25]: 52.2%; inhibition at 10 µM [26]: 48.5%; inhibition at 10 µM [27]: < 10%; inhibition at 10 µM [28]: 28.3%; inhibition at 10 µM [29]: 28.6%; inhibition at 10 µM [30]: < 10%; inhibition at 10 µM [31]: 15.6%; inhibition at 10 µM [32]: 34.6%; inhibition at 10 µM [33]: 21.4%; inhibition at 10 µM [34]: 27.6% |
| Clc1ccc(-c2nnc(N3c4ccccc4C=Cc4ccccc43)o2)cc1 [Compound 5c, 2-(4-Chlorophenyl)-5-(5H-dibenzo[b,f]azepin-5-yl)-1,3,4-oxadiazole] | 67.5% | 42.6% | < 10% | < 10% | 33.8% | 22.2% | 24% | 48% | 19.2% | 24.7% | < 10% | 31.3% | 30.4% | < 10% | 20.4% | < 10% | 174 to 176 °C | 22.1% | < 10% | 54% | inhibition at 10 µM [20]: < 10%; inhibition at 10 µM [21]: 12.9%; inhibition at 10 µM [22]: 29.6%; inhibition at 10 µM [23]: < 10%; inhibition at 10 µM [24]: 19.8%; inhibition at 10 µM [25]: 47.7%; inhibition at 10 µM [26]: 44.1%; inhibition at 10 µM [27]: < 10%; inhibition at 10 µM [28]: 27.5%; inhibition at 10 µM [29]: 24%; inhibition at 10 µM [30]: < 10%; inhibition at 10 µM [31]: 11.2%; inhibition at 10 µM [32]: 38.1%; inhibition at 10 µM [33]: 18.5%; inhibition at 10 µM [34]: 20.8% |
| Cc1ccc(-c2nnc(N3c4ccccc4C=Cc4ccccc43)o2)cc1 [Compound 5d, 2-(5 h-Dibenzo[b,f]azepin-5-yl)-5-(p-tolyl)-1,3,4-oxadiazole] | 60.6% | 31.8% | < 10% | 19.4% | < 10% | 17.1% | 14.3% | 34.6% | 52% | 10.1% | < 10% | 20.9% | 26.6% | 13.2% | 21% | < 10% | 239 to 241 °C | < 10% | < 10% | 47.8% | inhibition at 10 µM [20]: < 10%; inhibition at 10 µM [21]: < 10%; inhibition at 10 µM [22]: 22%; inhibition at 10 µM [23]: < 10%; inhibition at 10 µM [24]: 9.21%; inhibition at 10 µM [25]: 45.8%; inhibition at 10 µM [26]: 41.4%; inhibition at 10 µM [27]: < 10%; inhibition at 10 µM [28]: 21.6%; inhibition at 10 µM [29]: 11.5%; inhibition at 10 µM [30]: < 10%; inhibition at 10 µM [31]: < 10%; inhibition at 10 µM [32]: 33.8%; inhibition at 10 µM [33]: 13.1%; inhibition at 10 µM [34]: < 10% |
